Results as given in patent US20230285570A1, “THERAPEUTICALLY USEFUL CURE-PRO MOLECULES FOR E3 LIGASE MEDIATED DEGRADATION OF PROTEINS, AND METHODS OF MAKING AND USING THEM” (CORNELL UNIVERSITY, priority 2020, published 2023).
“Also recorded” adds a separate entry of the source.

Experiments:
Type in all cases: cell-based
BRD4 [1] = molecular target: T1, BRD4 (Homo sapiens, UniProt O60885); experiment: Summary of BRD4 degradation by CURE-PRO pairs, estimated from Western Blot or WES; set-up: endogenous in cells; conditions: Table 3, aryl-boronic acid BRD4 ligand + 8305
Summary of the method: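 Degradation read-out from immunoblot with ECL, or WES capillary electrophoresis with HRP detection, of RIPA lysates. Cells (Namalwa, Ramos, HeLa, MCF7, HT29 or HCT116) were exposed to DMSO-solubilized compounds for 24 h; a check mark marks 30% to 70% or higher degradation.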

caspase 3/7 [2] = experiment: Caspase-Glo 3/7 assay, Namalwa cells; conditions: 24 h
Protocol: (§1) Caspase-glo® assay (Promega) was conducted following the manufacturer's recommendations. Cells were seeded at a density of 5000 cells/well in a white 96 well plates (Corning, #3917) in a total volume of 100 μl with respective monomers, combinations of BRD ligands together with E3 ligase ligands or vehicle control treatment. After a 24 h incubation, 100 μl of the […] substrate was added per well and luminescence was read on a Spectramax M5 (Molecular Devices).
Namalwa cells (5×10^4) were treated for 24 hours with the compounds solubilized in DMSO. FIG. 57 is a bar graph depiction of fold increase of apoptosis assessed via caspase 3/7 activity using the Caspase-Glo assay (Promega) described above.
(§2) Molm-13 (FIG. 76A) or Namalwa (FIG. 76B) cells (5×10^4) were treated for 24 hours with the compounds solubilized in DMSO in white 96 well plates (10 nM-10 μM solubilized in DMSO). FIG. 76 is a bar graph depiction of fold increase of apoptosis assessed via caspase 3/7 activity using the Caspase-Glo assay (Promega) described above.

BRD4 [3] = molecular target: T1, BRD4; experiment: CURE-PRO-mediated BRD4 degradation in MCF7 cells, WES (ProteinSimple); set-up: endogenous in cells
Protocol: WES Simple analysis was performed on WES system (ProteinSimple-Biotechne) according to the manufacturer's instructions. Total protein concentrations of cell lysates were determined by the Pierce BCA kit (Thermo Fisher). 3 μL of 0.3 μg/μL of the protein lysate was loaded onto a 12- to 230-kDa WES assay plate (ProteinSimple) where 300 nL sample was withdrawn through a capillary, subjected to electrophoretic separation of proteins by size, and followed by the simultaneous, HRP-based detection of proteins using the Anti-Rabbit Detection Module (Proteinsimple: #DM-001). The electropherograms were checked then the automatic peak detection was manually corrected if it was required.
MCF7 cells (3×10^6) were treated for 4-24 hours continually (FIG. 72), or treated for 4 h, washed and incubated for a further 4-24 h with the compounds solubilized in DMSO. Compounds were added at 10 μM each. Cells were washed, lysed, and clarified by centrifugation. The total protein concentration was quantified by the BCA method (ThermoFisher Sciences). Standardized protein samples were electrophoresed and imaged as described in the WES Proteinsimple section above. FIG. 69 depicts the CURE-PRO-mediated BRD4 degradation for the BRD-E50 monomer, and VHL ligand, 8305.
MCF7 cells (3×10^6) were treated for 24 hours with the compounds solubilized in DMSO. CURE-PRO monomers were added at 10 μM each and the proteasomal inhibitors at 1 μM. Standardized protein samples were electrophoresed and imaged as described in the WES Proteinsimple section above. FIGS. 73 and 75 depicts the dependence of the proteasome for CURE-PRO-mediated BRD4 degradation.
MCF7 cells (3×10^6) were treated for 24 hours with the compounds solubilized in DMSO. CURE-PRO monomers were added at 10 μM. FIG. 74 depicts the CURE-PRO-mediated BRD4 degradation for the BRD-E50 monomer, and VHL ligand, 8305 combined in a 1:1 ratio after 24 h.

BRD4 [4] = molecular target: T1, BRD4; experiment: CURE-PRO-mediated BRD4 degradation in MCF7 cells, Western blot; set-up: endogenous in cells
Protocol: Namalwa, Ramosm HeLa, MCF7, or HT29 HCT116 cells (2.5-3×10^6) were treated for 24 hours with the indicated compounds solubilized in DMSO. The cells were washed in ice-cold PBS and were then lysed in RIPA lysis buffer (150 mM NaCl, 5 mM EDTA, 1% NP-40, 0.5% sodium deoxycholate, 0.1% SDS, 50 mM Tris, pH 8.0.) with Roche protease inhibitor complete cocktail and phosphatase inhibitors (10 mM sodium fluoride, 10 mM sodium pyrophosphate, 1 mM sodium orthovanadate and 20 mM β-glycerophosphate). The total protein concentrations were determined by Bradford Protein Assay (Pierce) and 10-20 μg of protein was loaded onto 4-15% Tris-Glycine gradient gels (Biorad). After standard gel electrophoresis, the separated proteins were transferred to PVDF membrane by wet transfer. The immunoblots were then blocked for 1 hour in 5% skim milk in TBST or 5% BSA in TBST, according to manufacturer's instructions, before an overnight incubation at 4° C. with indicated antibodies and membranes. Membranes were then incubated with the appropriate horseradish peroxidase-conjugated secondary antibodies (1:5,000 dilution) for 1 h at room temperature and the bands were visualized using the Clarity Max Western ECL Substrate (Biorad) and the ChemiDoc Imaging System (Biorad). Signal was detected with ECL Western Blotting Substrate (Pierce) and X-ray film processed with a Konica SRX-101 X-ray film processor or captured by Bio-Rad's Chemidoc Imaging system.
MCF7 cells (3×10^6) were treated for 24 h with the compounds solubilized in DMSO. Compounds were added at 100 nM-10 μM. Standardized protein samples were electrophoresed and imaged as described in the Immunoblotting section above. FIG. 69 depicts the CURE-PRO-mediated BRD4 degradation for the BRD-E9 monomer and VHL ligands 8305 combined in a 1:1 ratio, and FIG. 70 depicts the CURE-PRO-mediated BRD4 degradation for the BRD-E20 monomer and 8305.
MCF7 cells (3×10^6) were treated for 24 h with the compounds solubilized in DMSO. Compounds were added at 1 μM-10 μM. Standardized protein samples were electrophoresed and imaged as described in the Immunoblotting section above. FIG. 71 depicts the CURE-PRO-mediated BRD4 degradation for the BRD-E50 monomer and VHL ligands 8305 and 8304 combined in a 1:1 ratio.

Molm-13 cells = experiment: CellTiter-Glo cell viability, Molm-13 cells
Protocol: CellTiter-Glo® 2.0 Cell Viability Assay (Promega) was carried out following the manufacturer's recommendations. Cells were seeded at a density of 1000 cells/well in a white 96 well plates (Corning, #3917) in a total volume of 100 μl with respective monomers, combinations of BRD ligands together with E3 ligase ligands or vehicle control treatment. After a 72 h incubation, 100 ul of the CellTiter-Glo® substrate was added per well and luminescence was read on a Spectramax M5 (Molecular Devices). Dose-response curves were generated using Graphpad Prism software.
Molm-13 cells (1×10^4) were treated for 24 (FIG. 77A) or 72 (FIG. 77B) hours were treated in white 96 well plates with the compounds (10 nM-10 μM solubilized in DMSO). After indicated times cell viability was assessed using the CellTiter-Glo® Luminescent Cell Viability Assay (Promega) and the signal detected on a SpectraMax M5 (Molecular Devices).

caspase 3/7 [5] = experiment: Caspase-Glo 3/7 assay, Molm-13 cells
Protocol: as §1, §2

HCT116 cells = experiment: MTT toxicity of E3 ligase CURE-PRO monomers, HCT116 cells; conditions: monomer alone, HCT116, 10 nM-30 μM, 24 h
Protocol: CURE-PRO ligands for the E3 ubiquitin ligases were assessed for toxicity by MTT assays as described above. CURE-PRO monomers (10 nM-30 μM) were solubilized in DMSO and added in triplicate to cells (1×10^5 cells/well) seeded in 96 well plates on the previous day. HCT116 (FIG. 105A), MCF7 (FIG. 105B), and HT29 cells (FIG. 105C) were treated with the CURE-PRO monomers for 24 h.

[6] = single monomer alone, MCF7, 10 μM

SMILES | Degradation of BRD4, combination with VHL ligand 8305 (BRD4 [1]) | caspase 3/7 activation (caspase 3/7 [2]; 1:1 with VHL ligand 8305, Namalwa, 10 nM-10 μM) | caspase 3/7 activation (caspase 3/7 [2]; co-treated with VHL298, Namalwa) | BRD4 degradation (BRD4 [3]; 1:1 with VHL ligand 8305, MCF7, 10 μM each, 4-24 h) | BRD4 degradation (BRD4 [3]; co-incubated with VHL ligand 8304, MCF7, 10 μM each) | BRD4 degradation (BRD4 [3]; [6]) | BRD4 degradation after VHL298 pre-incubation (BRD4 [3]; with 8305, 10 μM each, VHL298 preincubated at equimolar concentration, MCF7) | BRD4 degradation (BRD4 [4]; 1:1 with VHL ligand 8304, MCF7, 24 h, 1 μM-10 μM) | BRD4 degradation (BRD4 [4]; 1:1 with VHL ligand 8305, MCF7, 24 h, 100 nM-10 μM) | loss of cell viability versus monomers alone (Molm-13 cells; co-dosed 1:1 with VHL ligand 8305, Molm-13, 24 h and 72 h, 10 nM-10 μM) | cell viability (Molm-13 cells; co-treated with VHL298, Molm-13, 24 h and 72 h) | caspase 3/7 activation (caspase 3/7 [5]; 1:1 with VHL ligand 8305, Molm-13, 24 h, 10 nM-10 μM) | caspase 3/7 activation (caspase 3/7 [5]; co-treated with VHL298, Molm-13, 24 h) | loss of viability (MTT) (HCT116 cells)
CCNC(=O)C[C@@H]1N=C(c2ccc(Cl)cc2)c2cc(B(O)O)ccc2-n2c(C)nnc21 [BRD-E50, ((4S)-6-(4-chlorophenyl)-4-(2-(ethylamino)-2-oxoethyl)-1-methyl-4H-benzo[f][1,2,4]triazolo[4,3-a][1,4]diazepin-8-yl)boronic acid] | √ (A black check mark indicates efficacy of 30% to 70% or higher protein degradation) | demonstrates activation of caspase 3/7; also recorded: marked caspase activation | does not increase caspase activity | directs degradation of BRD4 as early as 4 h; also recorded: marked BRD4 degradation after 4 h | No degradation is noted | there is no degradation of BRD4 | attenuates CURE-PRO mediated BRD4 degradation; also recorded: No degradation is noted; also recorded: inhibited CURE-PRO mediated degradation; also recorded: inhibits the degradation of BRD4 | but not when VHL ligand 8304 is co-incubated; also recorded: no degradation is noted | there is degradation of BRD4; also recorded: marked BRD4 degradation | marked loss in cell viability when compared to monomer treatment alone; also recorded: a greater loss of cell viability | decreases levels of cell viability to similar levels of BRD-E50 treatment alone | demonstrates activation of caspase 3/7; also recorded: marked caspase activation | does not increase caspase activity | –
Cc1ncsc1-c1ccc(CNC(=O)[C@@H]2C[C@@H](O)CN2C(=O)[C@@H](NC(=O)c2cccc(O)c2O)C(C)(C)C)cc1 [compound 8305, (2S,4R)-1-((S)-2-(2,3-dihydroxybenzamido)-3,3-dimethylbutanoyl)-4-hydroxy-N-(4-(4-methylthiazol-5-yl)benzyl)pyrrolidine-2-carboxamide] | – | – | – | – | – | there is no degradation of BRD4 | – | – | – | – | – | – | – | loss of viability only noted at higher concentrations (30 μM); also recorded: Toxicity at higher concentrations
